Series [1] addresses SARS-CoV-2 M^pro (Severe acute respiratory syndrome coronavirus 2, UniProt P0DTD1). The series can be described thus: biochemical. The settings on record: for inhibition at 10 µM: read-out: Enzymatic Inhibition Rate (%), primary screening, 10 μM, incubation for 5 min.
Series [2] deals with adenovirus. The settings on record: concentrations from 0.0156 μM to 1 μM; cited from earlier work.
A short description of series [3]: MTT cytotoxicity assay, Vero E6 cells. The class given is cell-based. The settings on record: African green monkey. The procedure:
(§1) The human HFF-1 and monkey Vero E6 cells were provided by Cell Bank in Shanghai, Chinese Academy of Sciences. HFF-1 cells were cultured in DMEM complete medium containing 15% FBS, 100 U/mL penicillin, and 100 μg/mL of streptomycin, while Vero E6 cells were maintained in DMEM complete medium containing 10% FBS. They were maintained at 37 °C in a humidified atmosphere with 5% CO2 (V/V).
(§2) The in vitro cytotoxicity of compounds was determined by the standard MTT assay according to our reported procedure. Briefly, well-cultured cells were seeded in 96-well plates at a density of 5 × 10^3 cells per well. After being cultured overnight in a 37 °C humidified incubator (5% CO2, V/V), cells were incubated with tested compounds for 48 h. Then, cells in each well were treated with MTT in PBS (5 mg/mL) for 4 h at 37 °C, and formazan crystals in viable cells were dissolved by dimethyl sulfoxide (150 μL) at ambient temperature. The absorbance of solubilized formazan was measured by the Synergy multimode reader (BioTek, Winooski, VT, American) at the wavelength of 490 nm.
For orientation: Formazan colour is commonly taken as a measure of viable cells.

Series [4] relates to SARS-CoV-2 N proteins in Vero E6 cells. Briefly: Immunofluorescence assay for viral N proteins in infected Vero E6 cells. The class given is cell-based. The settings on record: 10 μM, 48 h.
Experimental: Human Vero E6 cells were infected by live SARS-CoV-2 at an MOI value of 0.01. […] Then, cells in each group were collected and the immunofluorescence assay was used to detect the expression of viral N protein, and the result was analyzed by high-content screening.
The conditions of series [5]: experimental value; cited from earlier work.
Series [6] is described as follows: MTT cytotoxicity assay, HFF-1 cells. The class given is cell-based. The settings on record: human. The procedure: as §1, §2

These results are taken from publication PMC11945236 (Molecules, 2025).

As usually defined, the inhibition is the relative decrease from the control value, in per cent. A word on the IC50: it is the concentration needed to halve the response being measured. Usually CC50 stands for the concentration giving 50% cytotoxicity. A word on the LogP: it is a log measure of how a compound divides between an organic and an aqueous phase.

`COc1cc(C(CC=C(C)C)OC(=O)C=Cc2ccccc2)c(OC)c2c1/C(=N/O)C=C/C2=N\O` (stereo not shown) [Compound 12, 1-((5E,8E)-5,8-bis(Hydroxyimino)-1,4-dimethoxy-5,8-dihydronaphthalen-2-yl)-4-methylpent-3-en-1-yl Cinnamate]: the inhibition at 10 µM in series [1] was 28%.
As to `COc1cc(C(CC=C(C)C)OCCCCCCCCO)c(OC)c2c1/C(=N/O)C=C/C2=N\O` (stereo not shown) [Compound 10, (1E,4E)-6-(1-((8-Hydroxyoctyl)oxy)-4-methylpent-3-en-1-yl)-5,8-dimethoxy Naphthalene-1,4-dione Dioxime], the inhibition at 10 µM in series [1] worked out at 11.3%.
In series [1], `COc1cc([C@H](CC=C(C)C)OCCC(C)C)c(OC)c2c1/C(=N/O)C=C/C2=N\O` [Compound 15, (1E,4E)-6-((S)-1-(Isopentyloxy)-4-methylpent-3-en-1-yl)-5,8-dimethoxy Naphthalene-1,4-dione Dioxime] displayed a concentration for half-maximal inhibition (IC50) of 12.5 ± 3.59 µM.
Turning to `COc1cc(C(CC=C(C)C)OCCC(C)C)c(OC)c2c1/C(=N/O)C=C/C2=N\O` (stereo not shown) [Compound 5, (1E,4E)-6-(1-(Isopentyloxy)-4-methylpent-3-en-1-yl)-5,8-dimethoxynaphthal-ene-1,4-dione Dioxime], the inhibition at 10 µM in series [1] was ~36%.
Turning to `COc1cc(C(CC=C(C)C)OCCC(C)C)c(OC)c2c1C(=O)C=CC2=O` (stereo not shown) [Compound 4, 6-(1-(Isopentyloxy)-4-methylpent-3-en-1-yl)-5,8-dimethoxy Naphthalene-1,4-dione], the inhibition at 10 µM in series [1] came to 10.6%.
Turning to `COc1cc([C@@H](CC=C(C)C)OCCC(C)C)c(OC)c2c1/C(=N/O)C=C/C2=N\O` [Compound 14, (1E,4E)-6-((R)-1-(Isopentyloxy)-4-methylpent-3-en-1-yl)-5,8-dimethoxy Naphthalene-1,4-dione Dioxime], half-maximal inhibition in series [1] (IC50) was put at 22.8 ± 4.61 µM.
`COc1cc(C(CC=C(C)C)OCCCCC(C)O)c(OC)c2c1/C(=N/O)C=C/C2=N\O` (stereo not shown) [Compound 9, (1E,4E)-6-(1-((5-Hydroxyhexyl)oxy)-4-methylpent-3-en-1-yl)-5,8-dimethoxy Naphthalene-1,4-dione Dioxime]: the inhibition at 10 µM in series [1] is 10.7%.
Take `COc1cc(C(CC=C(C)C)OCCC(C)C)c(OC)c2c1/C(=N/OC(=O)c1ccccc1)C=C/C2=N\OC(=O)c1ccccc1` (stereo not shown) [Compound 6, (1E,4E)-6-(1-(Isopentyloxy)-4-methylpent-3-en-1-yl)-5,8-dimethoxynaphthalene-1,4-dione O,O-Dibenzoyl Dioxime]: the “Enzymatic Inhibition Rate (%)” value in series [1] (primary screening, 10 μM, incubation for 5 min) is given as “complete loss of activity”. The inhibition at 10 µM in series [1] was -6.9%.
As for `CC(C)=CC[C@@H](O)C1=CC(=O)c2c(O)ccc(O)c2C1=O` [Shikonin], in series [2], the “inhibitory effects against adenovirus” value was “showed inhibitory effects against adenovirus”. Besides, the cytotoxic concentration (CC50) at 48 h in series [3] is 1.48 ± 0.06 µM; in series [6] it was 1.31 ± 0.09 µM. Further, the “blue fluorescence (DAPI) from the live cell nucleus” value in series [4] is “almost invisible”. Also, the “expression of viral N proteins versus untreated cells” value in series [4] (MOI 0.01) is “significantly decreased expression of viral N proteins”. Also, the inhibition at 10 µM in series [1] worked out at 51.4%. Also, in series [5], the lipophilicity (LogP) is 1.08.
